In patent publication US20090325959A1 (priority 2008, published 2009):
Where two headings read alike, the source gives them in different places.

Tests used:
ROCK2 = target: T1, ROCK2 (Homo sapiens, UniProt O75116); experiment: Rho kinase inhibition assay (IMAP fluorescence polarization), ROCK2; assay type: biochemical; settings: read-out: ROCK2 Ki, Avg;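 further: kinase reaction started with 10 µM ATP and run 60 min at room temperature, then phosphorylated substrate captured on IMAP beads for 30 min and fluorescence polarization read in mP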
T1 construct: purchased Upstate/Chemicon 14-451
T1 sequence (O75116 11-552 limits assumed): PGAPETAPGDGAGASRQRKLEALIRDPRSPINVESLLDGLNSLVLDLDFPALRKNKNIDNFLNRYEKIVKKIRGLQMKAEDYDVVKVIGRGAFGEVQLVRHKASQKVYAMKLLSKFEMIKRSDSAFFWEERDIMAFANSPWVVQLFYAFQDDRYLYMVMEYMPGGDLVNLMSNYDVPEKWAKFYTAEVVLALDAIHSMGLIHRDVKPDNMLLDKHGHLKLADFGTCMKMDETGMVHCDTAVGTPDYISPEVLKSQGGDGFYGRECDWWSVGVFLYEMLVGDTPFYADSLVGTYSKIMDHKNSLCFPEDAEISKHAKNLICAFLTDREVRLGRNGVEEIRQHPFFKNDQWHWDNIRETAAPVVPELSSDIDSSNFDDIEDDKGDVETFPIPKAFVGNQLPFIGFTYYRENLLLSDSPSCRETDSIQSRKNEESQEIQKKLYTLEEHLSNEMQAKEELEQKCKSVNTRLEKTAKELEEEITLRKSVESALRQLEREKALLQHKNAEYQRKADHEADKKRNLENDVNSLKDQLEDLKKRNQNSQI
Description: (§1) Following the pre-incubation, 10 μM ATP was added to initiate the reaction. After 60 minutes at room temperature, Molecular Devices IMAP™ binding solution was added to bind phosphorylated substrate. After 30 minutes of incubation in the presence of the IMAP™ beads, the fluorescence polarization was read and the ratio was reported as mP. IC50 values for compounds and EC50 values for ATP were calculated using the Prism software from Graphpad.

ROCK1 = target: T2, ROCK1 (Homo sapiens, UniProt Q13464); experiment: Rho kinase inhibition assay (IMAP fluorescence polarization), ROCK1; assay type: biochemical;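 further: kinase reaction run 60 min at room temperature, then phosphorylated substrate captured on IMAP beads for 30 min, with fluorescence polarization read in mP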
T2 construct: purchased Upstate/Chemicon 14-601
T2 sequence (Q13464 17-535 limits assumed): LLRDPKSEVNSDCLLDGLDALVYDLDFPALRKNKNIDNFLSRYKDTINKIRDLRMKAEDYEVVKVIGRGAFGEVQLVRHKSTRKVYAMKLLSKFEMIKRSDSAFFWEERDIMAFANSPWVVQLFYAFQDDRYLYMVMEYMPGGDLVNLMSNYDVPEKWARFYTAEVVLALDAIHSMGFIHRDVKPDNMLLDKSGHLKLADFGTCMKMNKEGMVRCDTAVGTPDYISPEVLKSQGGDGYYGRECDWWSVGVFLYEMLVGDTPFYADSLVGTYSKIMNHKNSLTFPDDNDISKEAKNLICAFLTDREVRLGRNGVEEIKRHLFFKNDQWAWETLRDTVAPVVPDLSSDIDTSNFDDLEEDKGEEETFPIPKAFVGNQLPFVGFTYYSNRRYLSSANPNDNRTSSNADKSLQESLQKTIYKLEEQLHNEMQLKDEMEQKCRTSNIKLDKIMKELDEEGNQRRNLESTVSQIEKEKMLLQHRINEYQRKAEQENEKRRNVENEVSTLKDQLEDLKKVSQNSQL
Description: as §1

SMILES | Ki (ROCK2; 10 μM ATP) | Ki (ROCK1; Avg, 10 μM ATP) | Ki (ROCK2) | Ki (ROCK1; average Ki)
Clc1ccc(CN2CCC[C@H](Nc3ccc4[nH]ncc4c3)C2)cc1Cl [Compound 1.080, (S)-N-(1-(3,4-dichlorobenzyl)piperidin-3-yl)-1H-indazol-5-amine] | 15.2 nM | 131 nM |  | 
OCCOc1cccc(CN2CCC[C@H](Nc3ccc4[nH]ncc4c3)C2)c1 [Compound 1.090, (S)-2-(3-((3-(1H-indazol-5-ylamino)piperidin-1-yl)methyl)phenoxy)ethanol] | 24.9 nM | 281 nM |  | 
CS(=O)(=O)Nc1cccc(CN2CC[C@H](Nc3ccc4[nH]ncc4c3)C2)c1 [Compound 1.095, (S)-N-(3-((3-(1H-indazol-5-ylamino)pyrrolidin-1-yl)methyl)phenyl)methanesulfonamide] | 49.5 nM | 275 nM |  | 
NC(=O)COc1cccc(CN2CCC[C@@H](Nc3ccc4[nH]ncc4c3)C2)c1 [Compound 1.098, 2-(3-((3-(1H-indazol-5-ylamino)piperidin-1-yl)methyl)phenoxy)acetamide] | 25 nM |  |  | 
OC[C@@H](O)COc1cccc(CN2CCC[C@@H](Nc3ccc4[nH]ncc4c3)C2)c1 [Compound 1.115, (R)-3-(3-(((R)-3-(1H-indazol-5-ylamino)piperidin-1-yl)methyl)phenoxy)propane-1,2-diol] | 20.6 nM | 89.7 nM |  | 
C[C@@H](O)COc1cccc(CN2CCC[C@@H](Nc3ccc4[nH]ncc4c3)C2)c1 [Compound 1.116, (R)-1-(3-(((R)-3-(1H-indazol-5-ylamino)piperidin-1-yl)methyl)phenoxy)propan-2-ol] | 48.9 nM | 258 nM |  | 
OC[C@@H](O)COc1cccc(CN2CCC[C@H](Nc3ccc4[nH]ncc4c3)C2)c1 [Compound 1.117, (R)-3-(3-(((S)-3-(1H-indazol-5-ylamino)piperidin-1-yl)methyl)phenoxy)propane-1,2-diol] | 35.8 nM | 208 nM |  | 
C[C@@H](O)COc1cccc(CN2CCC[C@H](Nc3ccc4[nH]ncc4c3)C2)c1 [Compound 1.118, (R)-1-(3-(((S)-3-(1H-indazol-5-ylamino)piperidin-1-yl)methyl)phenoxy)propan-2-ol] | 81.7 nM | 462 nM |  | 
O=C(O)COc1cccc(CN2CCC[C@@H](Nc3ccc4[nH]ncc4c3)C2)c1 [Compound 1.125, (R)-2-(3-((3-(1H-indazol-5-ylamino)piperidin-1-yl)methyl)phenoxy)acetic acid] | 50.9 nM | 557 nM |  | 
OCCOc1cccc(CN2CCC(Nc3ccc4[nH]ncc4c3)CC2)c1 [Compound 1.130, 2-(3-((4-(1H-indazol-5-ylamino)piperidin-1-yl)methyl)phenoxy)ethanol] | 142 nM | 577 nM |  | 
CS(=O)(=O)Cc1cccc(CN2CCC[C@@H](Nc3ccc4[nH]ncc4c3)C2)c1 [Compound 1.139, (R)-N-(1-(3-(methylsuifonylmethyl)benzyl)piperidin-3-yl)-1H-indazol-5-amine] | 23.2 nM | 200 nM |  | 
CC(C)(C)OC(=O)NCc1cccc(CN2CCC[C@@H](Nc3ccc4[nH]ncc4c3)C2)c1 [Compound 1.140, (R)-tert-butyl 3-((3-(1H-indazol-5-ylamino)piperidin-1-yl)methyl)benzylcarbamate] | 32.9 nM | 236 nM |  | 
Clc1ccc(CN2CCC[C@@H](Nc3ccc4[nH]ncc4c3)C2)cc1Cl [Compound 1.144, (R)-N-(1-(3,4-dichlorobenzyl)piperidin-3-yl)-1H-indazol-5-amine] | 19.5 nM | 97.6 nM |  | 
CCOC(=O)COc1cccc(CN2CCC[C@@H](Nc3ccc4[nH]ncc4c3)C2)c1 [Compound 1.147, (R)-ethyl 2-(3-((3-(1H-indazol-5-ylamino)piperidin-1-yl)methyl)phenoxy)acetate] | 45.7 nM | 58.3 nM |  | 
CS(=O)(=O)c1cccc(CN2CCC[C@@H](Nc3ccc4[nH]ncc4c3)C2)c1 [Compound 1.160, (R)-N-(1-(3-(methylsulfonyl)benzyl)piperidin-3-yl)-1H-indazol-5-amine] | 49.4 nM | 218 nM |  | 
CCSc1ccc(CN2CCC[C@H](Nc3ccc4[nH]ncc4c3)C2)cc1 [Compound 1.168, (S)-N-(1-(4-(ethylthio)benzyl)piperidin-3-yl)-1H-indazol-5-amine] | 22.9 nM | 162 nM |  | 
FC(F)(F)c1cccc(CN2CCC[C@H](Nc3ccc4[nH]ncc4c3)C2)c1 [Compound 1.169, (S)-N-(1-(3-(trifluoromethyl)benzyl)piperidin-3-yl)-1H-indazol-5-amine] | 33.8 nM | 256 nM |  | 
Cc1cccc(CN2CCC[C@@H](Nc3ccc4[nH]ncc4c3)C2)c1C [Compound 1.172, (R)-N-(1-(2,3-dimethylbenzyl)piperidin-3-yl)-1H-indazol-5-amine] | 20.5 nM | 103 nM |  | 
c1cc2c(cc1CN1CCC[C@@H](Nc3ccc4[nH]ncc4c3)C1)OCCO2 [Compound 1.177, (R)-N-(1-((2,3-dihydrobenzo[b][1,4]dioxin-6-yl)methyl)piperidin-3-yl)-1H-indazol-5-amine] | 18.2 nM | 156 nM |  | 
CCOc1cccc(CN2CCC[C@H](Nc3ccc4[nH]ncc4c3)C2)c1 [Compound 1.179, (S)-N-(1-(3-ethoxybenzyl)piperidin-3-yl)-1H-indazol-5-amine] | 19.3 nM | 292 nM |  | 
CS(=O)(=O)c1ccc(CN2CCC[C@H](Nc3ccc4[nH]ncc4c3)C2)cc1 [Compound 1.181, (S)-N-(1-(4-(methylsulfonyl)benzyl)piperidin-3-yl)-1H-indazol-5-amine] | 32.8 nM | 568 nM |  | 

SMILES | Ki (ROCK2; 10 μM ATP) | Ki (ROCK1; Avg, 10 μM ATP) | Ki (ROCK2) | Ki (ROCK1; average Ki)
CS(=O)(=O)c1cccc(CN2CCC[C@H](Nc3ccc4[nH]ncc4c3)C2)c1 [Compound 1.182, (S)-N-(1-(3-(methylsulfonyl)benzyl)piperidin-3-yl)-1H-indazol-5-amine] | 30.6 nM | 408 nM |  | 
NCc1cccc(CN2CCC[C@H](Nc3ccc4[nH]ncc4c3)C2)c1 [Compound 1.184, (S)-N-(1-(3-(aminomethyl)benzyl)piperidin-3-yl)-1H-indazol-5-amine] | 90.9 nM | 843 nM |  | 
CC(C)(C)OC(=O)COc1cccc(CN2CCC[C@H](Nc3ccc4[nH]ncc4c3)C2)c1 [Compound 1.187, (S)-tert-butyl 2-(3-((3-(1H-indazol-5-ylamino)piperidin-1-yl)methyl)phenoxy)acetate] | 17.3 nM | 296 nM |  | 
NCc1ccc(CN2CCC[C@@H](Nc3ccc4[nH]ncc4c3)C2)cc1 [Compound 1.188, (R)-N-(1-(4-(aminomethyl)benzyl)piperidin-3-yl)-1H-indazol-5-amine] |  |  | 653 nM | 
CCSc1ccc(CN2CCC[C@@H](Nc3ccc4[nH]ncc4c3)C2)cc1 [Compound 1.189, (R)-N-(1-(4-(ethylthio)benzyl)piperidin-3-yl)-1H-indazol-5-amine] | 34.3 nM | 188 nM |  | 
FC(F)(F)c1cccc(CN2CCC[C@@H](Nc3ccc4[nH]ncc4c3)C2)c1 [Compound 1.190, (R)-N-(1-(3-(trifluoromethyl)benzyl)piperidin-3-yl)-1H-indazol-5-amine] | 71.8 nM | 326 nM |  | 
Clc1cccc(CN2CCC[C@@H](Nc3ccc4[nH]ncc4c3)C2)c1 [Compound 1.191, (R)-N-(1-(3-chlorobenzyl)piperidin-3-yl)-1H-indazol-5-amine] | 33.4 nM | 147 nM |  | 
Cc1cccc(CN2CCC[C@@H](Nc3ccc4[nH]ncc4c3)C2)c1 [Compound 1.192, (R)-N-(1-(3-methylbenzyl)piperidin-3-yl)-1H-indazol-5-amine] | 37.7 nM | 158 nM |  | 
CC(=O)NCc1cccc(CN2CCC[C@@H](Nc3ccc4[nH]ncc4c3)C2)c1 [Compound 1.194] | 20.2 nM | 176 nM |  | 
O=C(O)COc1cccc(CN2CCC[C@H](Nc3ccc4[nH]ncc4c3)C2)c1 [Compound 1.196, (S)-2-(3-((3-(1H-indazol-5-ylamino)piperidin-1-yl)methyl)phenoxy)acetic acid] | 39.8 nM | 711 nM |  | 
CN(c1cccc(CN2CCC[C@H](Nc3ccc4[nH]ncc4c3)C2)c1)S(C)(=O)=O [Compound 1.198, (S)-N-(3-((3-(1H-indazol-5-ylamino)piperidin-1-yl)methyl)phenyl)-N-methylmethanesulfonamide] | 24.7 nM | 585 nM |  | 
CC(C)(C)OC(=O)NCc1ccc(CN2CCC[C@H](Nc3ccc4[nH]ncc4c3)C2)cc1 [Compound 1.199, (S)-tert-butyl 4-((3-(1H-indazol-5-ylamino)piperidin-1-yl)methyl)benzylcarbamate] | 213 nM | 1860 nM |  | 
NCc1ccc(CN2CCC[C@H](Nc3ccc4[nH]ncc4c3)C2)cc1 [Compound 1.201, (S)-N-(1-(4-(aminomethyl)benzyl)piperidin-3-yl)-1H-indazol-5-amine] | 230 nM | 1590 nM |  | 
Clc1ccc(CN2CC[C@@H](Nc3ccc4[nH]ncc4c3)C2)cc1 [Compound 1.241, (R)-N-(1-(4-chlorobenzyl)pyrrolidin-3-yl)-1H-indazol-5-amine] |  | 65.1 nM |  | 
CN(C)S(=O)(=O)Nc1cccc(CN2CCC[C@H](Nc3ccc4[nH]ncc4c3)C2)c1 [Compound 1.261] |  | 307 nM |  | 307 nM
Cc1c(CN2CCC[C@H](Nc3ccc4[nH]ncc4c3)C2)cccc1NS(=O)(=O)N(C)C [Compound 1.275] |  | 402 nM |  | 402 nM
Cc1ccc(CN2CC[C@@H](Nc3cccc4cnccc34)C2)cc1NS(=O)(=O)N(C)C [Compound 2.077] |  | 33.7 nM |  | 33.7 nM
COc1nccc2c(N[C@@H]3CCN(Cc4ccc(C)c(OCCO)c4)C3)cccc12 [Compound 2.094, (R)-2-(5-((3-(1-methoxyisoquinolin-5-ylamino)pyrrolidin-1-yl)methyl)-2-methylphenoxy)ethanol] |  | 16600 nM |  | 
COc1c(CN2CC[C@@H](Nc3cccc4cnccc34)C2)cccc1NS(=O)(=O)N(C)C [Compound 2.097] |  | 35.4 nM |  | 35.4 nM
CC1CNCCN1S(=O)(=O)c1cccc2cnccc12 (centres unmarked) [Compound H7, reference compound] | 125 nM |  |  | 
